These results are taken from US12697367B2, “Medicament for improving or preventing symptoms relating to retina and/or light reception and method for screening for substance capable of improving or preventing symptoms relating to retina and/or light reception” (Osaka University, priority 2018, dated 2026).

Assay [1] deals with BALB/c mice with light-induced damage (blue LED light). Briefly: Light-induced damage experiment in mice: immunofluorescence staining of the photoreceptor layer of the retina. It is filed as in vivo. Conditions: tacrolimus 10 mg/kg subcutaneously every day for 6 days. Here is the method:
For dark adaptation, BALB/c mice aged 4 weeks (Japan SLC, Inc.) were housed in the dark for 12 hours. […] For control mice, DMSO was administered. Mydriatic eye drops, […] Pharmaceutical Co., Ltd.), were administered in the dark 30 minutes before completion of dark adaptation. The mice were placed in a box with four mirrored walls and a mirrored floor, and exposed to blue light from a blue LED light. The wavelength of the blue LED light was about 450 nm, and the light reaching the mice was about 7000 lx. After exposure to blue light for 3 hours, the mice were housed under normal light conditions (about 30 lx light from fluorescent lamps) for 9 hours. This dark/light cycle repeated as one cycle for 6 days. In other words, administration of the drug and exposure to blue light (3 hours) were performed every day for 6 days to induce light-induced damage. On the next day following the last exposure to blue light, the mice were euthanized and the eyes were harvested. The specimens were fixed in 4% paraformaldehyde/PBS (phosphate buffer saline) at room temperature for 5 minutes. The specimens were then washed with PBS, and embedded in O.C.T. compound (Sakura Finetek). Retinal cryosections of 20 μm thick were sliced with a cryostat, mounted on glass slides, and dried at room temperature. The sections were washed twice with PBS, and blocked with blocking buffer (5% normal donkey serum and 0.1% TritonX-100 in PBS) at room temperature for 1 hour. The sections were reacted with primary antibodies at 4° C. overnight. The sections were washed three times with PBS, and reacted with secondary antibodies at room temperature for 2 hours. The primary antibodies used in this study were anti-Rhodopsin antibody (rhodopsin, rabbit polyclonal, Santa Cruz, 1:500 dilution), anti-S-opsin antibody (S-opsin (blue cone opsin), goat polyclonal, Santa Cruz, 1:500 dilution), and anti-M-opsin antibody (M-opsin (green cone opsin), rabbit polyclonal, Millipore, 1:500 dilution). […] All the fluorescence images were acquired under a confocal laser scanning microscope (LSM 700, Carl Zeiss).

Assay [2] shares this test system. Briefly: Light-induced damage experiment in mice: measurement of thickness of photoreceptor layer. It is filed as in vivo. The conditions noted are these: tacrolimus 10 mg/kg subcutaneously every day for 6 days; blue light about 450 nm, about 7000 lx, 3 hours daily; vs DMSO control; FIG. 3. Here is the method: For dark adaptation, BALB/c mice aged 4 weeks (Japan SLC, Inc.) were housed in the dark for 12 hours. […] For control mice, DMSO was administered. Mydriatic eye drops, Cyplegin (Santen Pharmaceutical Co., Ltd.), were administered in the dark 30 minutes before completion of dark adaptation. The mice were placed in a box with four mirrored walls and a mirrored floor, and exposed to blue light from a blue LED light. The wavelength of the blue LED light was about 450 nm, and the light reaching the mice was about 7000 lx. After exposure to blue light for 3 hours, the mice were housed under normal light conditions (about 30 lx light from fluorescent lamps) for 9 hours. This dark/light cycle repeated as one cycle for 6 days. In other words, administration of the drug and exposure to blue light (3 hours) were performed every day for 6 days to induce light-induced damage.
Mouse retinal sections prepared in the same manner as above were washed twice with PBS, and the nuclei were stained with DAPI. The thickness of the photoreceptor layer was measured as the distance from the optic nerve. Specifically, the images were acquired under a confocal laser scanning microscope (LSM 700, Carl Zeiss), and the thickness of the photoreceptor layer was measured using the image analysis software Metamorph (Molecular Devices).

As for `C=CC[C@@H]1/C=C(\C)C[C@H](C)C[C@H](OC)[C@H]2O[C@@](O)(C(=O)C(=O)N3CCCC[C@H]3C(=O)O[C@H](/C(C)=C/[C@@H]3CC[C@@H](O)[C@H](OC)C3)[C@H](C)[C@@H](O)CC1=O)[C@H](C)C[C@@H]2OC` [tacrolimus, (3S,4R,5S,8R,9E,12S,14S,15R,16S,18R,19R,26aS)-5,19-Dihydroxy-3-{(1E)-2-[(1R,3R,4R)-4-hydroxy-3-methoxycyclohexyl]-1-methylethenyl}-14,16-dimethoxy-4,10,12,18-tetramethyl-8-(prop-2-en-1-yl)-15,19-epoxy-5,6,8,11,12,13,14,15,16,17,18,19,24,25,26,26a-hexadecahydro-3H-pyrido[2,1-c][1,4]oxaazacyclotricosine-1,7,20,21(4H,23H)-tetrone monohydrate], the “structure of the outer segment of the rod photoreceptor cells (anti-Rhodopsin antibody staining)” value in assay [1] (blue light about 450 nm, about 7000 lx, 3 hours daily, vs DMSO control, FIG. 1) is “maintained and comparable to that of control mice without light-induced damage”. Also, the “structure of the cone photoreceptor cells (anti-S-opsin and anti-M-opsin antibody staining)” value in assay [1] (blue light about 450 nm, about 7000 lx, 3 hours daily, vs DMSO control, FIG. 2) is “maintained and comparable to that of control mice without light-induced damage”. In assay [1] (mice with light-induced damage), the “degeneration of photoreceptor cells due to light exposure (overall conclusion)” value was “inhibits the degeneration of photoreceptor cells due to light exposure”. Besides, in assay [2], the “thickness of the photoreceptor layer” value was “maintained and comparable to that of control mice without light-induced damage”.
